Source: article PMC11986180, “ZIF-8 Selective Dispersive Solid-Phase Extraction-LC-MS/MS Method for the Determination of Aconitine alkaloids in Rat Plasma: Application in Pharmacokinetic Studies” (Journal of Analytical Methods in Chemistry, 2025)
Read-outs that look alike come from different tables or passages of the source.

What was measured:
[1] = Pharmacokinetics of aconitine alkaloids in rat plasma after oral administration of Fuzi extract (d-SPE-LC-MS/MS); type: in vivo, Sprague–Dawley rats; conditions: for AUC(0-inf) / AUC(0-t) / half-life / MRT last / MRT inf / Tmax: n = 6, oral (gastric gavage) 10 mg/kg Fuzi extract; for half-life: one-compartment model; for MRT last: read-out: MRT0-t; for MRT inf: read-out: MRT0-∞; for Cmax: oral 10 mg/kg Fuzi extract, read-out: maximum concentrations (Cmax); for Tmax: 10 mg/kg
Method: Male Sprague–Dawley rats (250–300 g, 8–10 weeks old) were procured from Shenzhen Bao'an Authentic TCM Therapy Hospital (Guangzhou, China) and acclimatized in a controlled environment (temperature: 25°C ± 2°C; humidity: 50% ± 5%; 12-h dark–light cycle) for at least 3 days before experimentation (Animal License Number: SCXK [Guangdong] 2022-0002). Laboratory animal compound feed (Guangdong Feeding Certificate: 2019, No. 05,073) was provided. All animal experiments were performed in accordance with the Guide for the Care and Use of Laboratory Animals by the National Institutes of Health. Ethical approval for the animal studies was obtained from the Ethics Committee of Sinopharm Dongfeng General Hospital. The animal protocols used in this study were approved by the Institutional Animal Care and Use Committee of Sinopharm Dongfeng General Hospital.
The crude powder of Fuzi (50 g) was decocted in 500 mL of water for 1 h to obtain the crude extract, which was then concentrated to 100 mL and stored at 4°C.
All rats were maintained under standard conditions with ad libitum access to food and water. They were divided into two groups: Group 1 was used to prepare blank plasma samples, and Group 2 was designated for pharmacokinetic studies. Drug-free rat plasma was collected via suborbital venous hemorrhage. Pharmacokinetic studies involved continuous blood sampling from the suborbital venous plexus, as described previously. Each rat was administered a 10 mg/kg dose of Fuzi extract via gastric gavage. Blood samples (200 μL) were collected at […] time points (0, 0.25, 0.50, 0.75, 1.0, 2.0, 3.0, 4.0, 6.0, 8.0, 10, 12, and 24 h postadministration) for pharmacokinetic analysis. The samples were collected into microtubes containing 5 μL of heparin, followed by centrifugation at 4000 rpm for 10 min. The resulting plasma ([…]) was separated and immediately frozen at −20°C for further analysis. Figure 2 illustrates the typical d-SPE–LC/MS profile of blank plasma and aconitine alkaloids, showing distinct peaks in rat plasma at 1 h postadministration without interference from endogenous peaks, thus maintaining a stable baseline for analyte and IS detection.
Before solid-phase extraction, ZIF-8 was activated by placing it in a vacuum-drying oven at 60°C for 24 h to remove surface-adsorbed water and other volatile substances. Rat plasma (100 μL) was combined with 350 μL of a 50% acetonitrile–water solution and 50 μL of yohimbine (IS). Following this, 15 mg of ZIF-8 was added to the mixture, which was then shaken for 18 min for extraction. After centrifugation, the adsorbent remained in the tube while the supernatant was discarded. Subsequently, 1000 μL of methanol was added to the tube, and ultrasonic elution of the nanocomposite was performed for 5 min. After centrifugation to collect the ZIF-8 nanocomposites, 900 μL of the eluent was evaporated using N2 flow at 40°C. The resulting residue was redissolved in 50 μL of methanol to obtain the final sample solution and analyzed by HPLC–MS/MS. The extraction process for aconitine alkaloids is depicted in Figure 3.
The pharmacokinetic parameters of aconitine alkaloids in rats were calculated using Phoenix WinNonlin 8.3 software. The maximum plasma concentration (Cmax) and the time to reach Cmax (Tmax) were directly derived from the experimental data. The elimination rate constant (Ke) was determined by linear regression of the terminal semilogarithmic plot of plasma concentration versus time, and the elimination half-life (t1/2) was calculated as 0.693/Ke. All data are presented as mean ± standard deviation.
The plasma concentrations of five aconitine alkaloid species from Fuzi were quantified using the present method. The peak plasma concentrations of aconitine, hypaconitine, mesaconitine, lappaconitine, and benzoylaconitine were reached within 0.75 h, indicating rapid absorption into the systemic circulation. […]

[2] = type: physicochemical, rat
Method: Aconitine, hypaconitine, mesaconitine, lappaconitine, benzoylaconitine, and yohimbine were individually dissolved in 10 mL of methanol to prepare the stock solution. These compounds were subsequently diluted with methanol to achieve final concentrations of 10 and 5.0 μg/mL to prepare the working standard solutions, which were stored at 4°C before use. Under the optimized conditions, 10 μL of the working standard solution and IS (5.0 μg/mL), along with 15 mg of ZIF-8, was added to 200 μL of blank rat plasma and various blank tissue homogenates. The final concentrations of the calibration standard samples were 0.3125, 0.625, 1.5625, 3.125, 6.25, 12.5, 25, 50, 100, 500, and 1000 ng/mL. Plasma quality control (QC) samples were prepared at concentrations of 0.625, 6.25, 10, and 50 ng/mL. Standard calibration samples and HPLC–MS samples were stored at −20°C until analysis.
Stability tests were conducted to replicate real-world conditions that samples are likely to encounter. […]

[3] = male, Sprague-Dawley, rat, plasma, po, read-out: Tmax
[4] = Automatic (24 h), plasma QC 6.25 ng/mL
[5] = Automatic (24 h), plasma QC 50 ng/mL
[6] = Freeze (−80°C for 30 d), plasma QC 6.25 ng/mL
[7] = Freeze (−80°C for 30 d), plasma QC 50 ng/mL
[8] = Freeze-thaw (three times), plasma QC 6.25 ng/mL
[9] = Freeze-thaw (three times), plasma QC 50 ng/mL
[10] = Room temperature (8 h), plasma QC 6.25 ng/mL
[11] = Room temperature (8 h), plasma QC 50 ng/mL

Structure (SMILES)	AUC(0-inf) ([1]; male, Sprague-Dawley)	AUC(0-t) ([1]; male, Sprague-Dawley)	half-life ([1]; male, Sprague-Dawley)	MRT last ([1]; male, Sprague-Dawley)	MRT inf ([1]; male, Sprague-Dawley)	Cmax ([1]; male, Sprague-Dawley)	Tmax [1, 3]	Tmax [1]	Stability RE % [2, 4]	Stability RE % [2, 5]	Stability RE % [2, 6]	Stability RE % [2, 7]	Stability RE % [2, 8]	Stability RE % [2, 9]	Stability RE % [2, 10]	Stability RE % [2, 11]	further results
COC[C@@]12CC[C@H](OC)[C@]34C(C([C@H](OC)[C@H]13)[C@]1(OC(C)=O)[C@H]3[C@@H](OC(=O)c5ccccc5)[C@](O)(C[C@H]34)[C@@H](OC)[C@@H]1O)N(C)C2 [Hypaconitine]	80.5 ± 2.91 ng·h/mL	47.3 ± 1.33 ng·h/mL	21.2 ± 0.505 h	8.627 ± 0.0519 h	27.6 ± 0.562 h	9.92 ± 0.33 ng/mL	≤ 0.75 h	0.5 h	−8.00%	1.32%	−3.27%	−2.50%	0.31%	3.47%	−7.92%	−7.90%	
CCN1C[C@]2(COC)[C@H](O)C[C@H](OC)[C@@]34[C@@H]5C[C@@]6(O)[C@H](OC(=O)c7ccccc7)[C@@H]5[C@@](OC(C)=O)([C@@H]([C@H](OC)[C@H]23)[C@@H]14)[C@@H](O)[C@@H]6OC [Aconitine]	26.9 ± 0.696 ng·h/mL	25.3 ± 0.566 ng·h/mL	5.77 ± 0.348 h	7.11 ± 0.143 h	8.59 ± 0.349 h	7.47 ± 0.732 ng/mL	≤ 0.75 h	0.5 h	4.19%	−10.01%	4.94%	−9.37%	3.96%	−8.46%	−1.08%	−8.69%	
CCN1CC2(OC(=O)c3ccccc3NC(C)=O)CCC(OC)C34C1C(CC23)C1(O)CC(OC)C2CC4C1(O)C2OC (stereo not shown) [Lappaconitine]	2.421 ± 0.0223 ng·h/mL	2.4 ± 0.0276 ng·h/mL	3.83 ± 0.791 h	4.47 ± 0.0814 h	4.71 ± 0.206 h	1.28 ± 0.121 ng/mL	≤ 0.75 h	0.5 h									Stability RE % ([2]; Automatic (24 h), plasma QC 3.125 ng/mL): −0.82%; Stability RE % ([2]; Automatic (24 h), plasma QC 25 ng/mL): −7.41%; Stability RE % ([2]; Freeze (−80°C for 30 d), plasma QC 3.125 ng/mL): −0.68%; Stability RE % ([2]; Freeze (−80°C for 30 d), plasma QC 25 ng/mL): −9.65%; Stability RE % ([2]; Freeze-thaw (three times), plasma QC 3.125 ng/mL): −2.04%; Stability RE % ([2]; Freeze-thaw (three times), plasma QC 25 ng/mL): −10.40%; Stability RE % ([2]; Room temperature (8 h), plasma QC 3.125 ng/mL): −0.52%; Stability RE % ([2]; Room temperature (8 h), plasma QC 25 ng/mL): −6.67%
COCC12CN(C)C3C4C(OC)C1C3(C(OC)CC2O)C1CC2(O)C(OC)C(O)C4(OC(C)=O)C1C2OC(=O)c1ccccc1 (stereo not shown) [Mesaconitine]	8.11 ± 0.46 ng·h/mL	7.7 ± 0.411 ng·h/mL	5.35 ± 0.562 h	5.69 ± 0.188 h	7.03 ± 0.479 h	1.71 ± 0.0446 ng/mL	≤ 0.75 h	0.75 h	−9.09%	−9.89%	−7.23%	−9.46%	−1.29%	−7.50%	0.97%	−12.74%	
CCN1CC2(COC)C(O)CC(OC)C34C5CC6(O)C(OC)C(O)C(O)(C5C6OC(=O)c5ccccc5)C(C(OC)C23)C14 (stereo not shown) [Benzoylaconitine]	14.1 ± 9.31 ng·h/mL	3.76 ± 0.0401 ng·h/mL	62.4 ± 57.4 h	9.95 ± 0.374 h	87.9 ± 79.7 h	0.939 ± 0.199 ng/mL		0.25 h	−8.67%	−9.65%	−7.70%	−10.48%	−6.91%	−10.57%	−7.89%	−7.98%	
